Experiment: refractive index (Na D-line) (dimensionless); xn = mol fraction of the nth substance listed
Conditions: 101 kPa, Liquid, Standard Abbe refractometry

CCCCOC(C)=O [butyl ethanoate] + Cc1ccc(C)cc1
refractive index
Conditions	293.15 K	298.15 K	303.15 K	308.15 K	313.15 K
x1 = 0.0494	1.49045	1.48779	1.48504	1.48238	1.47977
x1 = 0.1014	1.48487	1.48216	1.4794	1.47685	1.47409
x1 = 0.1494	1.4798	1.4771	1.47436	1.47174	1.46903
x1 = 0.2012	1.47424	1.47153	1.46878	1.46623	1.46356
x1 = 0.248	1.46931	1.46663	1.46387	1.46134	1.45863
x1 = 0.3077	1.46309	1.46041	1.45768	1.45514	1.45247
x1 = 0.3519	1.45847	1.45583	1.45312	1.45058	1.44789
x1 = 0.404	1.45307	1.45044	1.44776	1.44522	1.44259
x1 = 0.4519	1.44815	1.44554	1.44286	1.44032	1.4377
x1 = 0.4999	1.44322	1.44061	1.43796	1.43542	1.43282
x1 = 0.5505	1.43808	1.4355	1.43288	1.43034	1.42775
x1 = 0.5991	1.43317	1.4306	1.42798	1.42546	1.42286
x1 = 0.6518	1.42787	1.42531	1.42272	1.42021	1.41762
x1 = 0.6993	1.42315	1.42063	1.41806	1.41551	1.41295
x1 = 0.749	1.41825	1.41572	1.41319	1.41066	1.40812
x1 = 0.799	1.41333	1.41087	1.40834	1.40581	1.40327
x1 = 0.8519	1.4083	1.40578	1.40327	1.40076	1.39826
x1 = 0.8979	1.40384	1.40137	1.39885	1.39641	1.3939
x1 = 0.9489	1.39894	1.39654	1.39405	1.39155	1.3891

CCCCOC(C)=O [butyl ethanoate] + CCc1ccccc1
refractive index
Conditions	293.15 K	298.15 K	303.15 K	308.15 K	313.15 K
x1 = 0.0544	1.48984	1.48716	1.48442	1.48172	1.47899
x1 = 0.1008	1.48485	1.48219	1.47946	1.47673	1.47401
x1 = 0.1488	1.4796	1.47693	1.47418	1.47152	1.46884
x1 = 0.2024	1.47382	1.47116	1.46843	1.4658	1.4631
x1 = 0.254	1.46832	1.46568	1.46302	1.46037	1.45768
x1 = 0.2929	1.46417	1.46155	1.4589	1.45623	1.45354
x1 = 0.3526	1.45799	1.45536	1.45263	1.45	1.44729
x1 = 0.3989	1.45314	1.45054	1.44782	1.44526	1.44253
x1 = 0.4448	1.44842	1.44582	1.44315	1.44053	1.43785
x1 = 0.5021	1.44254	1.43999	1.43733	1.43472	1.43207
x1 = 0.5505	1.43764	1.43508	1.43242	1.42983	1.4272
x1 = 0.6041	1.43221	1.42967	1.42703	1.42449	1.42191
x1 = 0.6456	1.42806	1.42552	1.42292	1.42036	1.41779
x1 = 0.7003	1.42266	1.42015	1.41759	1.41507	1.41252
x1 = 0.7555	1.41729	1.41481	1.41224	1.40974	1.4072
x1 = 0.8016	1.41282	1.41035	1.40784	1.40537	1.40283
x1 = 0.8511	1.40813	1.40566	1.4032	1.40068	1.39815
x1 = 0.9009	1.40339	1.40097	1.39849	1.39597	1.39349
x1 = 0.9505	1.39875	1.39633	1.39386	1.39139	1.38895
